Results published in patent US4579866A, “Phenylacetamides as anti-allergy, anti-asthma and anti-inflammatory agents” (USV Pharmaceutical Corp., priority 1984, dated 1986).

Assays:
[1] = molecular target: T1, RAT 5-LIPOXYGENASE (Rattus norvegicus, UniProt P12527); test: Biosynthesis of 5-HETE by rat polymorphonuclear leukocytes in vitro (inhibition of rat 5-lipoxygenase); assay type: cell-based; details: rat neutrophils, A23187, 3 minutes at 30° C.; for IC50: concentration at which 50% inhibition is observed, read-out: INHIBITION OF RAT 5-LIPOXYGENASE, I50
T1 construct: A suspension of rat neutrophils in buffer; endogenous in cells; host or cells: rat neutrophils (polymorphonuclear leukocytes)
T1 sequence (P12527 1-673): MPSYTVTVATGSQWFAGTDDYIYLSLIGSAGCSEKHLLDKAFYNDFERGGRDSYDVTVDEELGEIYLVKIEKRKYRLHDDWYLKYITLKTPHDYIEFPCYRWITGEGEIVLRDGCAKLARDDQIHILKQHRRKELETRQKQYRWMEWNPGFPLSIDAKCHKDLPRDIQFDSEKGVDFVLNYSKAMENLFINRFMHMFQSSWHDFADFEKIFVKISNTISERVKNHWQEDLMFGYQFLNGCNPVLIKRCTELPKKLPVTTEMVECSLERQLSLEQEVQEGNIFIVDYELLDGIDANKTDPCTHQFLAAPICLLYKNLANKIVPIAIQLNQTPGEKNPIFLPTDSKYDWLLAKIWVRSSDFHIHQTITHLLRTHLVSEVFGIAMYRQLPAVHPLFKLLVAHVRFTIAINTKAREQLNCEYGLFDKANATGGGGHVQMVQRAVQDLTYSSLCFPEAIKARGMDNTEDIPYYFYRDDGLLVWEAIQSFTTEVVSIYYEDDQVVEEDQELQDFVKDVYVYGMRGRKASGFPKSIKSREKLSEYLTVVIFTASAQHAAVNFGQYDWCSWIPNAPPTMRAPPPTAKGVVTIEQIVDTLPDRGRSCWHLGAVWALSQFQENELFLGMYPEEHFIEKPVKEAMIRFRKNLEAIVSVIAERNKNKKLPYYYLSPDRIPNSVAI
Experimental: Protocol for the Biosynthesis of 5-HETE by Rat Polymorphonuclear Leukocytes In Vitro
A suspension of rat neutrophils in buffer is incubated for 3 minutes at 30° C. with [^14 C]-arachidonic acid (AA) and calcium ionophore A23187. Citric Acid (2M) NDGA (10 mM) is used to quench the reaction. Following the addition of a trace amount of (^3 H)-5-HETE together with an excess of unlabeled 5-HETE to each tube, the mixture is extracted with chloroform/methanol. The organic layer is washed with dilute acid and an aliquot is transferred to glass tubes and dried. The residue is dissolved in a small volume of chloroform and an aliquot is spotted on silica gel TLC sheets, which are developed with an ethyl acetate/isoctane/water/acetic acid solvent system. The 5-HETE spots are visualized under UV light, cut out and placed in scintillation vials for counting. After adjusting for the extraction efficiency, the amount (pmole) of [^14 C]-5-HETE in each of the tubes is quantitated. The net pmoles of 5-HETE are obtained by subtracting the pmoles of 5-HETE in the tubes containing buffer alone (blank) from the pmoles of 5-HETE in the tubes containing […]. The ability of the test compounds to modulate the activity of this enzyme is determined by a decrease or increase in the net amount of 5-HETE produced.
(§1) If the percentage of inhibition exceeds 50%, the compounds are then evaluated in terms of response over a range of concentrations. From a plot of response against concentration, the I50 value is obtained. The I50 value is the concentration at which 50% inhibition is observed.

[2] = tested on: LTC4; test: Antagonism of leukotriene C4 binding (guinea pig peripheral lung strips, contraction); assay type: cell-based; details: Cavia porcellus, leukotriene C4 usually 0.2 nM, 37° C., read-out: ANTAGONISM OF LTC4 BINDING, I50
Experimental: Protocol for Antagonism of Leukotrines C-4 Binding
Peripheral strips of guinea pig lungs are prepared and hung in tissue baths according to the procedure described by Drazen et al. (Proc. Nat'l. Acad. Sci., U.S.A. 77, 4354-4358, 1980). Male guinea pigs (Charles River, 250-400 g) are sacrificed by cervical dislocation and their lungs rapidly removed. The individual lobes are dissected free and rinsed in Assay Buffer (118 mM NaCl, 5.4 mM KCl, 2.5 mM CaCl2, 25 mM […], 1 mM MgSO4, 1 mM NaH2 PO4, 11 mM glucose) which is continuously aerated with 95% oxygen/5% carbon dioxide. After the lobes are extensively rinsed, a strip of lung tissue, approximately 2 mm thick and 5-8 cm long, is cut off the sharpest and most peripheral portion of each lobe. The peripheral edge is cut almost completely around the outside of the lobe so that a U-shaped strip is obtained. These strips are rinsed in Assay Buffer and then connected with surgical silk thread to the support rods of the water jacketed tissue baths (10 ml chambers). The other ends of the strips are connected to Gould UC3 pressure transducers which had been previously calibrated. The tissue baths are aerated with 95% oxygen/5% carbon dioxide and maintained at 37° C. The tension on these strips are adjusted to 500 mg. The tissues are initially washed with fresh buffer every 5-10 minutes for about 30 minutes and thereafter washed with fresh assay buffer at least every 20 minutes.
After the tissue had been repeatedly washed and allowed to equilibrate in the tissue baths, they are challenged with 1 μM histamine to standardize the contractions for each tissue.
Responses of each tissue to a predetermined concentration (usually 0.2 nM) of leukotriene C4 are then obtained. Compounds are then tested for their ability to antagonize to leukotriene C4 immediately upon challenge.
as §1

IC50 [1] [µM] | IC50 [2] [µM] | inhibition at 10 µM [1] [%] | SMILES
– | 5 | 27 | C=CCOc1ccc(CC(=O)N[C@@H](Cc2ccccc2)C(=O)OC)cc1Cl [4-Allyloxy-3-chlorophenylacetyl-L-phenylalanine methyl ester]
8 | 20 | – | C=CCOc1ccc(CC(=O)N(CC(=O)OCC)Cc2ccccc2)cc1Cl [4-Allyloxy-3-chlorophenylacetyl-N--benzylglycine ethyl ester]
0.7 | 9 | – | C=CCOc1ccc(CC(=O)N[C@H](Cc2ccccc2)C(=O)OC)cc1Cl [4-Allyloxy-3-chlorophenylacetyl-D-phenylalanine methyl ester]
– | – | 41 | C=CCOc1ccc(CC(=O)N(CCO)Cc2ccccc2)cc1Cl [N--benzyl, N--[2-hydroxyethyl]-3-chloro-4-allyloxyphenylacetamide]
– | 3 | 33 | C=CCOc1ccc(CC(=O)N[C@H](CO)Cc2ccccc2)cc1Cl [N--[4-Allyloxy-3-chlorophenylacetyl]-L-phenylalaninol]
20 | – | – | C=CCOc1ccc(CC(=O)N(C)Cc2ccccc2)cc1Cl [N--benzyl, N--methyl-3-chloro-4-allyloxy-phenylacetamide]
1.8 | 18 | – | C=CCOc1ccc(CC(=O)N(C)CC(O)c2ccccc2)cc1Cl (centres unmarked) [N--[4-Allyloxy-3-chlorophenylacetyl]-N--methyl-2-hydroxy-2-phenylethylamine]

The remaining lines, values behind:

SMILES | IC50 [1] [µM] | IC50 [2] [µM] | inhibition at 10 µM [1] [%]
C=CCOc1ccc(CC(=O)N(C)[C@H](C)[C@@H](O)c2ccccc2)cc1Cl [4-Allyloxy-3-chlorophenylacetyl-(+)-ephedrine] | 15 | – | –
COC(=O)[C@H](Cc1ccccc1)NC(=O)Cc1ccc(OCc2ccccc2)cc1 [4-Benzyloxyphenylacetyl-L-phenylalanine methyl ester] | – | 5 | 29
C=CCOc1ccc(CC(=O)NCC(O)c2ccccc2)cc1Cl (centres unmarked) [N--[4-Allyloxy-3-chlorophenylacetyl]-2-hydroxy-2-phenylethylamine] | 20 | – | –
C=CCOc1ccc(CC(=O)NC(CO)C(O)c2ccccc2)cc1Cl [N--[4-Allyloxy-3-chlorophenylacetyl]-3S-hydroxy-L-phenylalaninol] | – | – | 36
C=CCOc1ccc(CC(=O)N(C)[C@@H](C)[C@H](O)c2ccccc2)cc1Cl [4-Allyloxy-3-chlorophenylacetyl-(-)-ephedrine] | 30 | – | –
COC(=O)[C@@H](Cc1ccccc1)NC(=O)Cc1ccc(OCc2ccc3ccccc3n2)c(Cl)c1 [1-Chloro-4-[2-quinolinemethyloxy]-phenylacetyl-D-phenylalanine methyl ester] | – | – | 50
COC(=O)[C@H](Cc1ccccc1)NC(=O)c1ccc(OC2C=CCCC2)cc1 (stereo partly drawn) [4-[2-Cyclohexenyloxy]-benzoyl-L-phenylalanine methyl ester] | – | – | 33
COc1ccc(CC(=O)N(C)CCc2ccccc2)cc1Cl [N--[3-Chloro-4-methoxyphenylacetyl]-N--methyl-2-phenylethylamine] | – | – | 33
C=CCOc1ccc(C(=O)N[C@@H](Cc2ccccc2)C(=O)OC)cc1Cl [4-Allyloxy-3-chlorobenzoyl-L-phenylalanine methyl ester] | – | 15 | 34
C=CCOc1ccc(CC(=O)NC(Cc2ccc(Cl)cc2)C(=O)OC)cc1Cl (racemic) [4-Allyloxy-3-chlorophenylacetyl-DL-p-chlorophenylalanine methyl ester] | – | 9 | 25
O=C(Cc1ccc(OCc2ccccc2)c(Cl)c1)N[C@H](Cc1ccccc1)C(=O)O [4-Benzyloxy-3-chlorophenylacetyl-D-phenylalanine] | – | – | 40
COC(=O)[C@@H](Cc1ccccc1)NC(=O)Cc1ccc(OC)c(Cl)c1 [3-Chloro-4-methoxyphenylacetyl-D-phenylalanine methyl ester] | 3.8 | – | –
C=CCOc1ccc(CC(=O)NCC(C)c2ccccc2)cc1Cl (centres unmarked) [N--[4-Allyloxy-3-chlorophenylacetyl]-1-amino-2-phenylpropane] | – | 2.5 | 18
